{
  "source": "patent US6011019A",
  "about": "“Vasoactive effects and free radical generation by β-amyloid peptides” (University of South Florida, priority 1996, dated 2000)",
  "key": {"[1]": {"test_system": "human aortic endothelial cel line (HAEC)", "assay": "Aβ toxicity on HAEC and its prevention (trypan blue exclusion, HE stain)", "settings": "pimozide 10 μM, three hours post treatment", "protocol": "(§2) All these cells were maintained at 37° C., under an atmosphere containing 5% CO2. For the present experiments, HAEC and BE(2)-M17 were seeded at densities of 2×10^4 cells per well in 24-23ll clusters.\n(§3) The experiments were terminated one half, one, two and three hours post treatment by detachment with Trypsin/EDTA solution and followed by a toxicity assay with trypan blue exclusion. In parallel experiments, cells were attached to a round Thermanox (Nunc) at the bottom of the well, and were stopped three to 24 hours post treatment by fixation with 4% neutral formalin solution which was followed by Hematoxylin-Eosin stain to show morphology.\n(§4) Morphological changes in cells were monitored throughout the course of the experiment with an inverse phase-contrast microscope. After termination of the experiments, the cells fixed on the Thermanox were subjected to routine Hematoxylin-Eosin (HE) stain. The morphological characteristics of toxic cells were observed under light microscope and typical results were recorded by photographs.\n(§5) For approximate quantification of Aβ toxicity of HAEC, modified procedure for trypan blue exclusion was employed. In brief, the detached cells were resuspended with an appropriate volume of culture media, 20 μl of this cell suspension was mixed with an equivalent volume of 4% Trypan-blue solution thoroughly, and allowed to sit for two minutes after mixing. Approximately 9 μl of the mixture was transferred to a hemocytometer for cell counting. The cell viability was determined by the equation: [formula] In the case of severe toxicity, where some of the cells were lysed, the total cell numbers were adjusted by that of controls. In this experiment, counts for each sample were triplicated."}, "[2]": {"test_system": "human neuroblastoma cell line (BE(2)-M17)", "assay": "Aβ toxicity on BE(2)-M17 (trypan blue exclusion)", "assay_type": "cell-based", "settings": "same concentrations as HAEC cultures, up to day eight; data not shown", "description": "Trypan blue exclusion was used for the cell viability assay."}, "[3]": {"test_system": "human aortic endothelial cel line (HAEC)", "protocol": "as §2, §3, §4, §5"}, "rat aorta": {"test_system": "rat aorta", "assay": "Enhancement of endothelin-1 (ET-1) induced vasoconstriction of rat aorta", "settings": "for enhancement of ET-1 contraction: peptide 1 μM (Aβ25-35 1 μM and 5 μM) ten minutes prior to first ET-1 dose", "procedure": "Normal Sprague-Dawley rats were sacrificed by decapitation, and freshly dissected rat aorta was segmented into rings and suspended in Ringers buffer using a tensiometer linked to the MacLab system. Following a two hour equilibration period, the \"pretreatment\" contraction was carried out. The aortic rings were contracted using a range of doses of endothelin-1 and relaxed using a single odes of acetylcholing (Ach(10^-7 M)). […] The dose of each Aβ peptide was 1 μM, with the exception of Aβ25-35 (1 μM and 5 μM), and was added ten minutes prior to the first ET-1 dose. For SOD treatment we added 150 U/ml 30 seconds before the addition of Aβ.\nEndothelium was removed by gently passing a glass pipette, dipped in saline solution, through the lumen of the aortae several time, allowing the pipette to gently brush the endothelial surface. Endothelium was removed from the aortae prior to hanging in the tissue bath system. Both pre-and post treatment contractions involved a single does of ET-1 (5×10^-9 M).\nIn all cases the mean difference in percentage contraction in the pre- and post-contractions (before and after addition of test compound respectively) was measured, and compared between the two. Endogenous production of ET-1 was measured using an ET-1 RIA kit (Peninsula Laboratories)."}, "aortic rings": {"test_system": "aortic rings", "assay": "β-amyloid augmentation of phenylephrine (PE) induced contraction of aortic rings", "set-up": "species or system rat", "settings": "for effect on β-amyloid induced enhancement of PE mediated contraction: β-amyloid 5×10^-7 M, PE 4×10^-8 M, L-NMMA 10^-4 M, indomethacin 10^-5 M, SQ 29548 10^-5 M, catalase 1000 units/ml", "procedure": "(§1) The blood vessel preparations were mounted on stainless steel hooks attached to a force-displacement transducer and equilibrated under the optimum tension of 1.3 g for a period of sixty minutes in a tissue bath (10 ml) containing oxygenated (5% CO2 in O2) Kreb's buffer at 37° C. The buffer was changed every fifteen minutes. After equilibration for sixty minutes the viability of the blood vessel with intact endothelium was established by constricting the blood vessel using phenylephrine ([…]). This dose of phenylephrine elicited 80% of the maximum response. […] The vessel preparations were washed for fifteen minutes before various manipulations as described below.\nThe procedure was then repeated following incubation of the tissue with 10^-6 M β-amyloid for fifteen minutes (P1). The tissue was then rinsed and contractions repeated twice following fifteen minute incubation (P2 & P3) without further addition of β-amyloid. Arrows are shown for points of addition for P3.\nFollowing a fifteen minute incubation, the preparations were contracted with 10^-7 M phenylephrine (PE) as described earlier. Control contractions with PE alone were carried out in presence of the various test compounds. Values represent the mean±SEM of four or more experiments. The heat-inactivated SOD was prepared by placing it in boiling water for thirty minutes followed by cooling prior to use. The hydrogen peroxide-inactivated SOD was prepared by exposing SOD to 10 mM H2 O2 for thirty minutes at pH 8.5 and subsequent separation using Microcon filtration system. The amyloid induced PE contraction was blocked by active SOD. Neither albumin or inactivated SOD had any effect on the amyloid activity.\nThe effect of preincubation of blood vessel with 10^-6 M β-amyloidon contraction induced by phenylephrine (2, 4, 8, & 16×10^-8 M is shown in Table 1). The maximum contraction in the absence of β-amyloid is taken as 100% and the values obtained following exposure to β-amyloid are expressed as percent of control value. After washing out phenylephrine and acetylcholine of the control contraction, β-amyloid augmented the phenylephrine induced contractions (P1). This effect was blocked by SOD. Washing out the phenylephrine and acetylcholine of the post peptide contraction and repeating the contractions caused further enhancement (P2). Values represent the mean±SEM of nine or more experiments.\nThe tissue was then incubated for fifteen minutes with β-amyloid (5×10^-7 M) with or without the drug, followed by contractions with PE. The concentrations compounds used were: L-NMMA, an inhibitor of NO synthase (10^-4 M); indomethacin, an inhibitor of the cyclooxygenase pathway (10^-5 M); SQ 29548, a thromboxane A2 receptor antagonist (10^-5 M); and catalase (1000 units/ml). Values are represented as percentage of the maximal contraction obtained with β-amyloid and PE alone and standardized to remove the intrinsic effects (if any) of each drug on PE contraction alone. The results represent the mean±SEM of five or more experiments."}, "rat coronary arteries": {"test_system": "rat coronary arteries", "assay": "Rat coronary artery constriction and relaxation (U46619, acetylcholine)", "settings": "for constriction of rat coronary artery by the peptide: 10^-6 M peptide", "procedure": "The effects of β-amyloid peptide were examined on samples of rat coronary arteries prepared as described above. Referring specifically to FIG. 1, rat coronary arteries were treated with β-amyloid peptide (Aβ40) causing constriction of the coronary arteries.\nFIG. 3 illustrates the effect of various amyloid fragments on the constriction of rat coronary arteries. Following control constriction with 10^-7 M U46619, the tissue samples were rinsed, equilibrated with buffer, and treated with 10^-6 M Aβ peptides for fifteen minutes. Following treatment with the Aβ peptides, the blood vessels were rinsed and again exposed to U46619. The values are expressed as percent of control constriction produced by U46619 alone.\nThe effect of pretreatment of coronary arteries with a single dose (10^-6 M) of A40 on acetylcholine induced relaxation is shown in FIG. 20. The blood vessel was preconstricted with 10^-7 M U46619 and relaxed with increasing doses of acetylcholine (10^-9 M to 10^-5 M)."}, "blood vessel (rat aorta)": {"test_system": "blood vessel (rat aorta)", "assay": "Vascular response of blood vessel rings in tissue bath (basal tension, β-amyloid induced vasoactivity)", "procedure": "Freshly excised rat and porcine blood vessels were placed in Kreb's bicarbonate buffer equilibrated with 5% CO2 in O2. The buffer composition consisted of 118.2 mM NaCl, 4.7 mM KCl, 1.2 mM MgSO4, 2.5 mM CaCl2, 1.2 mM NaH2 PO4, 23 mM NaHCO3 and 11.2 mM glucose. After cleaning the vessels free of fat and other adhering tissues, the vessels were cut into ring segments of approximately 3 mm in length. Care was taken not to damage the intimal surface.\nThe endothelium was removed from some preparations by rubbing the inside of the lumen with a metal spatula for six to ten seconds and subsequent rinsing with buffer. The removal of endothelium was confirmed by testing for relaxation to acetylcholine [Furchgott and Zawadzki, 1980].\nas §1\nReferring to FIG. 10, the arrow indicates the addition of 10^-6 M β-amyloid. The control tissue received no β-amyloid. SOD (150 units/ml) was added thirty seconds prior to the addition of β-amyloid. The maximum contraction induced by β-amyloid was 1.14±0.13 (g) and in presence of SOD the contraction was reduced to 0.04±0.02 (g). Values represent the mean±SEM of five separate experiments."}},
  "data": [
    {"molecule": "O=c1[nH]c2ccccc2n1C1CCN(CCCC(c2ccc(F)cc2)c2ccc(F)cc2)CC1", "note": "[pimozide]", "values": [
      {"measurement": "own toxicity of the blocker on HAEC", "setting": "[1]", "result": "seems to be toxic itself"}
    ]},
    {"molecule": "Aβ1-42: β-amyloid peptide with forty-two amino acids; supplied by RBI and/or MD Enterprise", "values": [
      {"measurement": "toxic effect on differentiated BE(2)-M17 cells", "setting": "[2]", "result": "not toxic effect was noticed"},
      {"measurement": "cell morphology by HE staining", "setting": "[3]", "result": "highly vacuolized cytoplasm, blebbing cell membranes and swelling cell bodies"},
      {"measurement": "cell viability one half hour post treatment", "setting": "[3]", "result": "significant reduction of cell viability"},
      {"measurement": "time and dose dependence of toxic effects on HAEC", "setting": "[3]", "result": "time-and dose-dependent manner"},
      {"measurement": "enhancement of vasoconstriction compared with Aβ1-40", "setting": "rat aorta", "result": "decreased enhancement of vasoconstriction"},
      {"measurement": "enhancement of ET-1 contraction", "setting": "rat aorta", "result": "also enhanced the ET-1 contraction"}
    ]},
    {"molecule": "catalase", "values": [
      {"measurement": "effect on β-amyloid induced enhancement of PE mediated contraction", "setting": "aortic rings", "result": "None of the compounds exerted any significant effect"}
    ]},
    {"molecule": "O=C(O)CCC/C=C\\C[C@@H]1[C@H](CNNC(=O)Nc2ccccc2)[C@H]2CC[C@@H]1O2", "note": "[SQ 29548]", "values": [
      {"measurement": "effect on β-amyloid induced enhancement of PE mediated contraction", "setting": "aortic rings", "result": "None of the compounds exerted any significant effect"}
    ]},
    {"molecule": "COc1ccc2c(c1)c(CC(=O)O)c(C)n2C(=O)c1ccc(Cl)cc1", "note": "[indomethacin]", "values": [
      {"measurement": "effect on β-amyloid induced enhancement of PE mediated contraction", "setting": "aortic rings", "result": "None of the compounds exerted any significant effect"}
    ]},
    {"molecule": "COc1ccc(CCN(C)CCCC(C#N)(c2ccc(OC)c(OC)c2)C(C)C)cc1OC", "note": "(stereo not shown) [verapamil]", "values": [
      {"measurement": "ET-1 contraction with the compound alone", "setting": "rat aorta; verapamil 50 μM", "result": "caused enhancement of contraction"},
      {"measurement": "effect on Aβ enhancement of ET-1 contraction", "setting": "rat aorta; verapamil 50 μM two minutes before Aβ, endothelium present", "result": "had no effect on Aβ enhancement"}
    ]},
    {"molecule": "Oc1ncnc2[nH]ncc12", "note": "[allopurinol]", "values": [
      {"measurement": "effect of allopurinol on Aβ enhancement", "setting": "rat aorta", "result": "No effect on Aβ enhancement"}
    ]},
    {"molecule": "Aβ25-35: fragment of Aβ, widely regarded to be the neurotoxic fragment (GSNKGAIIGLM; Amyloid-beta protein 42; UniProt P05067 696-706, looked up, fragment)", "values": [
      {"measurement": "toxic effect on differentiated BE(2)-M17 cells", "setting": "[2]", "result": "not toxic effect was noticed"},
      {"measurement": "cell morphology by HE staining", "setting": "[3]", "result": "highly vacuolized cytoplasm, blebbing cell membranes and swelling cell bodies"},
      {"measurement": "cell viability one half hour post treatment", "setting": "[3]", "result": "significant reduction of cell viability"},
      {"measurement": "time and dose dependence of toxic effects on HAEC", "setting": "[3]", "result": "time-and dose-dependent manner"},
      {"measurement": "enhancement of ET-1 contraction", "setting": "rat aorta", "result": "unable to enhance contraction even at five times the concentration of Aβ1-40"},
      {"measurement": "constriction of rat coronary artery by the peptide", "setting": "rat coronary arteries", "result": "induce constriction of the coronary artery"}
    ]},
    {"molecule": "Aβ1-28: β-amyloid peptide fragment 1-28", "values": [
      {"measurement": "constriction of rat coronary artery by the peptide", "setting": "rat coronary arteries", "result": "induce constriction of the coronary artery"}
    ]},
    {"molecule": "CNC(=N)NCCC[C@H](N)C(=O)O", "note": "[L-NMMA]", "values": [
      {"measurement": "effect on β-amyloid induced enhancement of PE mediated contraction", "setting": "aortic rings", "result": "None of the compounds exerted any significant effect"}
    ]},
    {"molecule": "CCCCC[C@H](O)/C=C/[C@@H]1[C@@H](C/C=C\\CCCC(=O)O)[C@H]2CO[C@@H]1C2", "note": "[U46619]", "values": [
      {"measurement": "constriction of rat coronary artery by vasoconstrictor", "setting": "rat coronary arteries; 10^-7 M", "result": "caused constriction of the blood vessel"}
    ]},
    {"molecule": "CNC[C@H](O)c1cccc(O)c1", "note": "[phenylephrine]", "values": [
      {"measurement": "Emax at 1000 µM", "setting": "blood vessel (rat aorta); Rattus norvegicus, phenylephrine (1 mM), viability test of vessel, read-out: response elicited, of the maximum response", "result": 80, "unit": "%"},
      {"measurement": "constriction of blood vessel", "setting": "blood vessel (rat aorta); with or without endothelium", "result": "constricted in response to phenylephrine with or without endothelium"}
    ]},
    {"molecule": "albumin", "values": [
      {"measurement": "protection against β-amyloid enhancement of PE induced contraction", "setting": "aortic rings; preincubation before 10^-6 M β-amyloid, 10^-7 M PE", "result": "did not protect"}
    ]}
  ]
}
